Source: publication PMC7508162 (Frontiers in Pharmacology, 2020)

Key:
human NPP3 = biological target: T1, human NPP3 (Homo sapiens, UniProt O14638); assay: NPP3 assay with ϵ-NAD+ as substrate; assay type: biochemical; details: for inhibition at 10 µM: 10 µM test compound; for Ki: 20 µM ϵ-NAD+, read-out: Ki ± SEM
T1 construct: the catalytic domains of the enzymes were amplified and sub-cloned into the expression vector pACGP67 A/B; 9xHis (C); made in house; host or cells: Sf9 insect cells (baculovirus, pACGP67 A/B)
T1 sequence (O14638 31-875 limits assumed): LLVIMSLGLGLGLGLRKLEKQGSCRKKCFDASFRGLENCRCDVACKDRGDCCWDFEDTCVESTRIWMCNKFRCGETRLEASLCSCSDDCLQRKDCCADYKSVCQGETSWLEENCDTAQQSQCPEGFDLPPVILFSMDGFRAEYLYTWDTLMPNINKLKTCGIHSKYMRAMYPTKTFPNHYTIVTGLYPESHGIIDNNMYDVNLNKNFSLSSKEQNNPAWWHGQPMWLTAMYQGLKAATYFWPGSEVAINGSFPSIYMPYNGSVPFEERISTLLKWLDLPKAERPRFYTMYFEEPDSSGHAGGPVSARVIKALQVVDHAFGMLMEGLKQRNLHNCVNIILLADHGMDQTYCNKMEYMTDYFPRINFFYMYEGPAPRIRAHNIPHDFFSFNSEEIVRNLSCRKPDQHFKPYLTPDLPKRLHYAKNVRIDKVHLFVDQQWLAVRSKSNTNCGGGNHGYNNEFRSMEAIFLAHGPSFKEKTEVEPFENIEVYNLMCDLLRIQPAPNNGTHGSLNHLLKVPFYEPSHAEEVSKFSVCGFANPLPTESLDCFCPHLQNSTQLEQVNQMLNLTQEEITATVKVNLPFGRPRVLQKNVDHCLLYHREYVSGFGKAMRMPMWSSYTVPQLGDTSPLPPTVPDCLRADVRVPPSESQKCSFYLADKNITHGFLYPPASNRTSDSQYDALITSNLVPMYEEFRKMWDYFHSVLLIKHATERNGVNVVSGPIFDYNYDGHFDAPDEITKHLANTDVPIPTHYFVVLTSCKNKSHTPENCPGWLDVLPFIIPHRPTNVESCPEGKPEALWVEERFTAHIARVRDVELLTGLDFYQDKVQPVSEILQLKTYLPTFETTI
From the text: (§1) The cDNAs of the human enzymes NPP1, NPP3, NPP5, CD38 and CD73 (Genbank accession no. NM_006258, NM_005021, NM_021572, NM_ 001775, and NM_002526, respectively) were obtained from Origene (Rockville, USA). Soluble enzymes were produced as previously reported with some modifications ([Lee et al., 2015]; [Junker et al., 2019]). Briefly, the catalytic domains of the enzymes were amplified and sub-cloned into the expression vector pACGP67 A/B modified with the addition of 9 x histidine tag (His-tag) at the C-terminus (except for NPP1). The plasmids were transfected in Sf9 insect cells using Cellfectin™ II Reagent (Thermo Fisher Scientific, MA, USA) and ProEasy™ baculovirus linearized DNA (Cat.#A10S, AB Vector, LLC). Protein expression was conducted for 48 h at 27°C. The signal peptide sequence of the expression vector shuttled the proteins into the supernatant. The supernatant medium was collected, and the enzymes were purified using HisPur™ Ni^2+-NTA spin columns according to the manufacturer’s protocol. The protein concentration was determined by the method previously described by [Lowry et al. (1951)].
The assays were performed in analogy to published procedures ([Blacher et al., 2015]). The enzymatic activity of human NPP3 and NPP5 (soluble forms expressed in insect cells and purified as previously described ([Lee et al., 2015]; [Lopez et al., 2020]) was measured using 1,N^6-etheno-nicotinamide adenine dinucleotide (ϵ-NAD^+) as a substrate, which is hydrolyzed to fluorescent 1,N^6-etheno-AMP (ϵ-AMP). The enzymatic reactions were performed in reaction buffer [10 mM N-cyclohexyl-2-aminoethanesulfonic acid (CHES), 2 mM CaCl2, and 1 mM MgCl2, pH 9.0 in H2O]. Purified NPP3 (90 ng) or NPP5 (400 ng), 20 µM of ϵ-NAD^+ and 10 µM of the test compound were incubated for 30 min at 37°C. The relative fluorescence at 270 nm excitation and 420 nm emission was detected by a fluorescence microplate reader (Flexstation, Medical Devices LLC. USA, Softmax Pro software to collect the data).

[1] = Chemical stability of stock solutions by LC/ESI-MS analysis; assay type: physicochemical
Procedure: To ensure that degradation was caused by microsomal enzymes and not due to chemical instability, stock solutions were analyzed by LC/ESI-MS analysis, and were in all cases found to be stable. […] Nevertheless, they represent useful tool compounds for in vitro studies.

human CD73 = biological target: T2, human CD73 (Homo sapiens, UniProt P21589); assay: CD73 assay with [2,8-3H]AMP as radioactive substrate; assay type: biochemical; details: for Ki: soluble human CD73, 5.0 µM [2,8-3H]AMP, read-out: Ki ± SEM
T2 construct: the catalytic domains of the enzymes were amplified and sub-cloned into the expression vector pACGP67 A/B; 9xHis (C); made in house; host or cells: Sf9 insect cells (baculovirus, pACGP67 A/B)
T2 sequence (P21589 27-549 limits assumed): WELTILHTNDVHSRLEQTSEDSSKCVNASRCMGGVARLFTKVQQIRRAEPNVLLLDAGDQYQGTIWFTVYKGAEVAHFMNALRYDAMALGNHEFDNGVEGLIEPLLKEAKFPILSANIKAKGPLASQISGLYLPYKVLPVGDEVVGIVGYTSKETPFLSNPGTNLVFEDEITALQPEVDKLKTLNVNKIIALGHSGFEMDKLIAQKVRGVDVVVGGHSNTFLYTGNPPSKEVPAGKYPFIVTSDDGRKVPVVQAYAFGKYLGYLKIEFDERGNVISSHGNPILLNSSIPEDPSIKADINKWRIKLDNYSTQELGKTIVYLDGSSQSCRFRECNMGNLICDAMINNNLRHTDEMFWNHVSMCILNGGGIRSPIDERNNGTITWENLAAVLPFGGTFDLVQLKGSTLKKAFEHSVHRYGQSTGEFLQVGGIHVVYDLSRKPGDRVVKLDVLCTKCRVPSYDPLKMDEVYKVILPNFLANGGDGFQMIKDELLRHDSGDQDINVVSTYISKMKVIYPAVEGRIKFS
From the text: as §1
The assay was performed as previously described ([Freundlieb et al., 2014]). Briefly, it contained with 0.09 µg/ml of soluble human CD73 recombinantly expressed in Sf9 insect cells as described ([Junker et al., 2019]), the respective test compound, and 5.0 µM [2,8-^3H]AMP (specific activity 7.4 x 108 Bq/mmol, 20 mCi/mmol) as radioactive substrate in assay buffer consisting of 25 mM Tris buffer, 140 mM NaCl, 25 mM NaH2PO4 pH 7.4. The enzymatic reaction was performed for 25 min at 37°C in a shaking water bath. Then, 500 µl of cold precipitation buffer (100 mM LaCl3, 100 mM sodium acetate, pH 4.0) were added to precipitate free phosphate and unconverted [2,8-^3H]AMP. After 30 min on ice, filtration through GF/B glass fiber filters using a cell harvester was used to separate AMP from adenosine. After washing each reaction vial three times with 400 µl of cold (4°C) demineralized water, aliquots of the filtrate were taken, and 5 ml of scintillation cocktail (ULTIMA Gold XR9) was added. The amount of formed adenosine was quantified by liquid scintillation counting (TRICARB 2900 TR, Packard/PerkinElmer).

With `CCCCSc1nc2c(N)ncnc2n1[C@@H]1O[C@H](COP(=O)(O)OP(=O)(O)C(Br)(Br)P(=O)(O)O)[C@@H](O)[C@H]1O` [Compound 31, (((((((2R,3S,4R,5R)-5-(6-Amino-8-(butylthio)-9H-purin-9-yl)-3,4-dihydroxytetrahydrofuran-2-yl)methoxy)(hydroxy)-phosphoryl)oxy)(hydroxy)phosphoryl)dibromomethyl)-phosphonic Acid] the inhibition at 10 µM (human NPP3) was 8%, the Ki (human NPP3) was > 10 µM and the “stability of stock solutions” value [1] was “stable”. It also gave a Ki (human CD73) of 831 ± 274 nM.
For `CCN(CC)c1ncnc2c1ncn2[C@@H]1O[C@H](COP(=O)(O)OP(=O)(O)C(Br)(Br)P(=O)(O)O)[C@@H](O)[C@H]1O` [ARL67156, (Dibromo((((((2R,3S,4R,5R)-5-(6-(diethylamino)-9H-purin-9-yl)-3,4-dihydroxytetrahydrofuran-2-yl)methoxy)-(hydroxy)-phosphoryl)oxy)(hydroxy)phosphoryl)methyl)-phosphonic Acid, reference compound], the inhibition at 10 µM (human NPP3) was 13%, the Ki (human NPP3) was > 10 µM and the “stability of stock solutions” value [1] was “stable”. It also gave a Ki (human CD73) of 451 ± 121 nM.
For `CCCCNc1nc2c(NC)ncnc2n1[C@@H]1O[C@H](COP(=O)(O)OP(=O)(O)C(Br)(Br)P(=O)(O)O)[C@@H](O)[C@H]1O` [Compound 33, (Dibromo((((((2R,3S,4R,5R)-5-(8-(butylamino)-6-(methylamino)-9H-purin-9-yl)-3,4-dihydroxy-tetrahydrofuran-2-yl)methoxy)(hydroxy)phosphoryl)oxy)-(hydroxy)phosphoryl)methyl)-phosphonic Acid], the inhibition at 10 µM (human NPP3) was 8%, the Ki (human NPP3) was > 10 µM and the “stability of stock solutions” value [1] was “stable”. The “fold higher potency at CD73 compared to CD39” value (human CD73; CD73 Ki vs CD39 Ki) was 8 fold and the Ki (human CD73) was 185 ± 74 nM.
